The values that follow come from US20240400571A1, “5,6 UNSATURATED BICYCLIC HETEROCYLES USEFUL AS INHIBITORS OF NOD-LIKE RECEPTOR PROTEIN 3” (Merck Sharp & Dohme LLC, priority 2023, published 2024).

Structures are written as SMILES.

For orientation: EC50 means the concentration that produces a half-maximal response.

T1 sequence (Q96P20 whole entry): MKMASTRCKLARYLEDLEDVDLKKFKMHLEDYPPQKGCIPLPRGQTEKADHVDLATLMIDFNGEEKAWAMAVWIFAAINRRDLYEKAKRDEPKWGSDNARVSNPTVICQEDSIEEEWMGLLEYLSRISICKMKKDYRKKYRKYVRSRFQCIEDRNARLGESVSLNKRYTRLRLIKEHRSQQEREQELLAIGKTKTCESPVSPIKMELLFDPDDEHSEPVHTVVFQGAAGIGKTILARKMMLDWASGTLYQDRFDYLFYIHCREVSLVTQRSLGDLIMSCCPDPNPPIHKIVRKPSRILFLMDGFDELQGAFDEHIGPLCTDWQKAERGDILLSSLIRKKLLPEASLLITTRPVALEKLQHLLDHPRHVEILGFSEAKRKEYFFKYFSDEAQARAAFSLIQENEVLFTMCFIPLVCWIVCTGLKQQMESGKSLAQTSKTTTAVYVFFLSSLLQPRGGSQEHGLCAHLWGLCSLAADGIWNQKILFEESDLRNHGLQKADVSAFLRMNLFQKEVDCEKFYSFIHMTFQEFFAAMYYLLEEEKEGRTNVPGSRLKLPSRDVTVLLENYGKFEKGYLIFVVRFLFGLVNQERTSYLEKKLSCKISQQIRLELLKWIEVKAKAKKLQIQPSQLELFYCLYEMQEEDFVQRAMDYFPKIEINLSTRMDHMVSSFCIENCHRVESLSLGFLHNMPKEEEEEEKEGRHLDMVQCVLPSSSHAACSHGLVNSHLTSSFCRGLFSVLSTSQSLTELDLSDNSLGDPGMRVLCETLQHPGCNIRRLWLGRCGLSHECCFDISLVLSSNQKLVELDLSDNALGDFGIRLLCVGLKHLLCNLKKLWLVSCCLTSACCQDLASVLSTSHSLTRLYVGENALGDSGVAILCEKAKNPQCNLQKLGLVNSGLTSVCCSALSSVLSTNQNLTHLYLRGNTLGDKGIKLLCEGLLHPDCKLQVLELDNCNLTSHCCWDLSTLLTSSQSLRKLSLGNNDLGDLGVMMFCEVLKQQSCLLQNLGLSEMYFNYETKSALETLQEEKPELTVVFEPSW

This assay concerns the target T1, NLRP3 inflammasome (Homo sapiens, UniProt Q96P20).
T1 construct: host or cells: THP-1 human monocytic cells, treated with PMA and stimulated with gramicidin
Description: ASC-SPECK formation in THP-1 cells after gramicidin stimulation (NLRP3 inflammasome activation). As to conditions: PMA-treated human monocytic THP-1 cells; compound 1 h before 12.5 μg/ml gramicidin, 3-hour treatment; ASC SPECK imaging; read-out: EC50 values (nM) for Examples that inhibit NLRP3 inflammasome activation. It counts as cell-based. The method, then: The ability of compounds to inhibit NLRP3 inflammasome activation was determined in vitro by monitoring formation of the ASC-SPECK in human monocytic THP-1 cells after stimulation. THP-1 cells (ATCC catalog #TIB-202) were maintained in complete growth media containing Roswell Park Memorial Institute RPMI (ATCC catalog #30-2001), 10% heat inactivated fetal bovine serum, 1× penicillin/streptomycin and 0.05 mM 2-mercaptoethanol. At the start of the assay, undifferentiated THP-1 cells were plated at a density of 20,000 cells per well in a 384-well plate (Poly-D-lysine coated Cell Carrier Ultra microplate, Perkin Elmer catalog #6057500) in complete growth media supplemented with 10 ng/ml phorbol 12-myristate 13-acetate (PMA; Sigma catalog #P8139), and then incubated overnight. The next day, media was replaced with assay media [RPMI (Gibco catalog #11875-093), 0.01% bovine serum albumin (BSA)]. Compounds were serially diluted in DMSO and then added to wells one hour prior to the addition of 12.5 μg/ml Gramicidin (Enzo Lifescience, catalog #ALX-350-233-M005). All incubations were carried out at 37° C. (5% CO2/95% air). Following a 3-hour treatment with gramicidin, cells are fixed with 4% paraformaldehyde and stored at 4° C. until immunofluorescence staining.
Immunofluorescence staining: Anti-ASC antibody (MBL catalog #D086-3) was desalted and labeled with Alexa 488 antibody labeling kit (Thermo catalog #A20181) prior to use as described below. After fixation, the following steps were carried out at room temperature. Cells were first permeabilized with 0.3% Triton X-100 in phosphate-buffered saline (PBS) for 15 minutes and then incubated in blocking buffer containing 5% goat serum, 0.3% tween-20 and 0.03% sodium azide in PBS for 1 hour. Cells were stained with a mixture of ASC-Alexa 488 antibody (diluted 1:200 in blocking buffer) and nuclear stain DRAQ5 (1:5000 in blocking buffer, Thermo catalog #62251) in blocking buffer for 1 hour. Following a wash with 0.3% Tween-20 in PBS, plates were imaged with an Opera Phenix High Content Screening System. The number of DRAQ5 positive cells containing ASC SPECKS were quantified in each well.
Data analysis: EC50 values were calculated by standard curve-fitting analysis using an internally developed program in TIBCO Spotfire software.
As for `[2H]C([2H])([2H])N1CCC[C@@H](n2cnc3c(C)c(-c4ccc(C(F)(F)F)cc4O)nnc32)C1` [Example 35, (R)-2-(4-methyl-7-(1-(methyl-d3)piperidin-3-yl)-7H-imidazo[4,5-c]pyridazin-3-yl)-5-(trifluoromethyl)phenol], the EC50 was found to be 29 nM. With `CCN1CCC[C@@H](n2cnc3c(C)c(-c4ccc(C(F)(F)F)cc4O)nnc32)C1` [Example 7, (R)-2-(7-(1-ethylpiperidin-3-yl)-4-methyl-7H-imidazo[4,5-c]pyridazin-3-yl)-5-(trifluoromethyl)phenol], the EC50 stood at 13 nM. Then `Cc1c(-c2ccc(C(F)(F)F)cc2O)nnc2c1ncn2[C@H]1CN(C)CC[C@H]1O` [Example 11, (3S,4R)-3-(3-(2-hydroxy-4-(trifluoro-methyl)phenyl)-4-methyl-7H-imidazo[4,5-c]pyridazin-7-yl)-1-methylpiperidin-4-ol], with 147 nM. Then `Cc1c(-c2c(O)cc(Cl)cc2F)nnc2c1ncn2[C@@H]1CCCN(C)C1` [Example 26, 5-chloro-3-fluoro-2-(4-methyl-7-((R)-1-methylpiperidin-3-yl)-7H-imidazo-[4,5-c]pyridazin-3-yl)phenol], with 81 nM; and `CN1CCCC(n2cnc3cc(-c4ccc(C(F)(F)F)cc4O)nnc32)C1` (racemic) [Example 8, (R and S)-2-(7-(1-methylpiperidin-3-yl)-7H-imidazo[4,5-c]pyridazin-3-yl)-5-(trifluoromethyl)phenol], with 1000 nM. Then `Cc1ccc(-c2nnc3c(ncn3[C@@H]3CCCN(C)C3)c2C)c(O)c1F` [Example 20, (R)-2-fluoro-3-methyl-6-(4-methyl-7-(1-methylpiperidin-3-yl)-7H-imidazo[4,5-c]pyridazin-3-yl)phenol], with 84 nM; and `Cc1c(-c2ccc(C(F)(F)F)cc2O)nnc2c1ncn2[C@H]1CNCC[C@H]1O` [Example 6, (3S,4R)-3-(3-(2-hydroxy-4-(trifluoro-methyl)phenyl)-4-methyl-7H-imidazo[4,5-c]pyridazin-7-yl)piperidin-4-ol], with 550 nM; and `Cc1c(-c2ccc3c(c2O)CCC3)nnc2c1ncn2[C@@H]1CCCNC1` [Example 19, (R)-5-(4-methyl-7-(piperidin-3-yl)-7H-imidazo[4,5-c]pyridazin-3-yl)-2,3-dihydro-1H-inden-4-ol], with 53 nM. On to `Cc1c(-c2ccc3c(c2O)CC(F)(F)C3)nnc2c1ncn2[C@@H]1CCCN(C)C1` [Example 21, (R)-2,2-difluoro-5-(4-methyl-7-(1-methylpiperidin-3-yl)-7H-imidazo[4,5-c]pyridazin-3-yl)-2,3-dihydro-1H-inden-4-ol], for which the EC50 was found to be 996 nM. Take `CCN1CCC[C@@H](n2cnc3cc(-c4c(C)cc(C(F)(F)F)cc4O)nnc32)C1` [Example 3, (R)-2-(7-(1-ethylpiperidin-3-yl)-7H-imidazo[4,5-c]pyridazin-3-yl)-3-methyl-5-(trifluoromethyl)phenol]: the EC50 was determined as 21 nM. With `Cc1c(-c2ccc(C(F)(F)F)cc2O)nnc2c1ncn2[C@@H]1CC[C@@H]2CC[C@H]1N2` (single isomer, unassigned) [Example 24], the EC50 came to 130 nM. In the case of `Cc1c(-c2ccc(C(F)(F)F)cc2O)nnc2c1ncn2[C@@H]1CCCNC1` [Example 5, (R)-2-(4-methyl-7-(piperidin-3-yl)-7H-imidazo[4,5-c]pyridazin-3-yl)-5-(trifluoromethyl)phenol], the EC50 is 143 nM.

Consider `Cc1c(-c2ccc(C(F)(F)F)cc2O)nnc2c1ncn2[C@@H]1CCCN2CCC[C@@H]12` (single isomer, unassigned) [Example 34], for which the EC50 was 87 nM. As to `CCN1CC[C@@H](O)[C@@H](n2cnc3c(C)c(-c4ccc(C(F)(F)F)cc4O)nnc32)C1` [Example 12, (3S,4R)-1-ethyl-3-(3-(2-hydroxy-4-(trifluoro-methyl)phenyl)-4-methyl-7H-imidazo[4,5-c]pyridazin-7-yl)piperidin-4-ol], the EC50 is 103 nM. Under `Cc1c(-c2ccc(Cl)cc2O)nnc2c1ncn2[C@@H]1CCCNC1` [Example 13, (R)-5-chloro-2-(4-methyl-7-(piperidin-3-yl)-7H-imidazo[4,5-c]pyridazin-3-yl)phenol] stands 320 nM; under `Cc1c(-c2ccc(C(F)(F)F)cc2O)nnc2c1ncn2[C@H]1CCCN2CCC[C@H]12` (single isomer, unassigned) [Example 33], 1360 nM. For the compound `Cc1c(-c2ccc(C(F)(F)F)cc2O)nnc2c1ncn2[C@H]1CC[C@H]2CC[C@@H]1N2` (single isomer, unassigned) [Example 25], the EC50 was 1010 nM. Then `Cc1c(-c2ccc(Cl)cc2O)nnc2c1ncn2[C@@H]1CCCN(C)C1` [Example 17, (R)-5-chloro-2-(4-methyl-7-(1-methylpiperidin-3-yl)-7H-imidazo[4,5-c]pyridazin-3-yl)phenol], with 28 nM; and `CCN1[C@H]2CC[C@@H]1[C@H](n1cnc3c(C)c(-c4ccc(C(F)(F)F)cc4O)nnc31)CC2` (single isomer, unassigned) [Example 30], with 9 nM. In the case of `Cc1c(-c2ccc(C(F)(F)F)cc2O)nnc2c1ncn2[C@@H]1CC[C@@H]2CC[C@H]1N2C` (single isomer, unassigned) [Example 29], the EC50 stood at 26 nM. Then `CCN1CCC[C@@H](n2ccc3cc(-c4c(C)cc(C(F)(F)F)cc4O)nnc32)C1` [Example 1, (R)-2-(7-(1-ethylpiperidin-3-yl)-7H-pyrrolo[2,3-c]pyridazin-3-yl)-3-methyl-5-(trifluoromethyl)phenol], with 19 nM; and `Cc1c(-c2ccc3c(c2O)CCC3)nnc2c1ncn2[C@@H]1CCCN(C)C1` [Example 16, (R)-5-(4-methyl-7-(1-methylpiperidin-3-yl)-7H-imidazo[4,5-c]pyridazin-3-yl)-2,3-dihydro-1H-inden-4-ol], with 23 nM; and `Cc1c(-c2ccc(C(F)(F)F)cc2O)nnc2c1ncn2C12CCCC(N)(C1)C2` [Example 32, 2-(7-(5-aminobicyclo[3.1.1]heptan-1-yl)-4-methyl-7H-imidazo[4,5-c]pyridazin-3-yl)-5-(trifluoromethyl)phenol], with 47 nM. Turning to `Cc1c(-c2ccc(C(F)(F)F)cc2O)nnc2c1ncn2[C@@H]1CCCN(C)C1` [Example 10, (R)-2-(4-methyl-7-(1-methylpiperidin-3-yl)-7H-imidazo[4,5-c]pyridazin-3-yl)-5-(trifluoromethyl)phenol], the EC50 is 25 nM. Then `CCN1CCC[C@@H](n2cnc3c(C)c(-c4ccc(Cl)cc4O)nnc32)C1` [Example 18, (R)-5-chloro-2-(7-(1-ethylpiperidin-3-yl)-4-methyl-7H-imidazo[4,5-c]pyridazin-3-yl)phenol], with 29 nM. Then `Cc1c(-c2ccc(C(F)(F)F)cc2O)nnc2c1nc(C)n2[C@@H]1CCCN(C)C1` [Example 14, (R)-2-(4,6-dimethyl-7-(1-methylpiperidin-3-yl)-7H-imidazo[4,5-c]pyridazin-3-yl)-5-(trifluoromethyl)phenol], with 567 nM; and `Cc1cc(C(F)(F)F)cc(O)c1-c1cc2ncn(C3CCCN(C)C3)c2nn1` (racemic) [Example 4, (R and S)-3-methyl-2-(7-(1-methylpiperidin-3-yl)-7H-imidazo[4,5-c]pyridazin-3-yl)-5-(trifluoromethyl)phenol], with 91 nM. Under `Cc1c(-c2ccc(C(F)(F)F)cc2O)nnc2c1ncn2[C@@H]1CCCN(C2CCC2)C1` [Example 23, (R)-2-(7-(1-cyclobutylpiperidin-3-yl)-4-methyl-7H-imidazo[4,5-c]pyridazin-3-yl)-5-(trifluoromethyl)phenol] stands 112 nM. In the case of `Cc1c(-c2ccc(C(F)(F)F)cc2O)nnc2c1ncn2[C@H]1CC[C@H]2CC[C@@H]1N2C` (single isomer, unassigned) [Example 28], the EC50 turned out to be 1410 nM. Turning to `CCN1[C@@H]2CC[C@H]1[C@@H](n1cnc3c(C)c(-c4ccc(C(F)(F)F)cc4O)nnc31)CC2` (single isomer, unassigned) [Example 31], the EC50 was found to be 889 nM.

As for `Cc1c(-c2ccc(C(F)(F)F)cc2O)nnc2c1ncn2[C@@H]1CCCN(C(C)C)C1` [Example 22, (R)-2-(7-(1-isopropylpiperidin-3-yl)-4-methyl-7H-imidazo[4,5-c]pyridazin-3-yl)-5-(trifluoromethyl)phenol], the EC50 is 20 nM.
